Our source for the melting point values is a melting point compilation (Tetko et al.; mined from patent text by program, amines drawn as free bases though some values may be those of a salt).

A word on the melting point: it is the temperature of the solid-liquid transition.

Compound `Cn1c(NC(=N)N)nc2ccccc21` registered a melting point of 178 to 179 °C.

As to `NN=C1CCc2ccccc21`, the melting point fell in the range of 84 to 86 °C.

In the case of `OC(CCCl)c1ccccc1` (centres undefined), the melting point fell in the range of 56 to 57 °C.

Compound `CC(=O)OCc1cc(=O)c(Oc2ccc(F)cc2F)c(-c2ccc(S(C)(=O)=O)cc2)o1` displayed a melting point of 175 °C.

Turning to `N#CC(C#N)=C(Cl)c1ccc(C(Cl)=C(C#N)C#N)cc1`, the melting point is 177 to 179 °C.

In the case of `O=C(CN1C(=O)CC1S(=O)Cc1ccccc1)NCCCCCCc1ccccc1` (centres undefined), the melting point was 138 to 140 °C.

The compound `CCC(O)(c1ccc(OCc2ccccc2)cc1)c1cccc(C(F)(F)F)c1` (centres undefined) showed a melting point of 50 to 51 °C.

Consider `CCOc1ccc2nc(C)cc(=O)n2c1C`, for which the melting point is 112 to 114 °C.

The compound `c1cnc2c(c1)-c1sccc1C2Cc1ccncc1` (centres undefined) displayed a melting point of 178 to 181 °C.

`Cc1c(-c2cccnc2)n(CCCCc2nnn[nH]2)c2ccccc12` registered a melting point of 177 to 179 °C.

The compound `CCCc1nnc2c(N(CC)CC)nc3ccccc3n12` yielded a melting point of 92 to 94 °C.

The compound `O=C(O)c1nn(-c2ccc(Cl)cc2Cl)c(-c2ccc(Cl)cc2)c1CF` registered a melting point of 60 to 80 °C.

`CCOC(=O)c1c(Nc2ccccc2C)n[nH]c1C` gave a melting point of 156 to 160 °C.

Take `NC(=CC(=O)c1ccccn1)C1CC1`: the melting point was 145 to 150 °C.

Compound `CCCn1c(C)nn(-c2ccc(N3CCN(c4ccc(OC)cc4)CC3)cc2)c1=O` showed a melting point of 202 °C.

Consider `Fc1cccc(C2(N3CCC3)CCC3(CC2)NCCc2c3[nH]c3ccccc23)c1` (centres undefined), for which the melting point lay within 186 to 188 °C.

Take `CCCN(CCC)C(=O)Cc1c(-c2ccccc2)nn2cccnc12`: the melting point was in the range of 103 to 105 °C.

For the compound `COCc1c(C(=O)O)ncc2c1c1c(Oc3ccc([N+](=O)[O-])cc3)cccc1n2CC(=O)N(C)CCc1ccccc1`, the melting point lay within 231 to 232 °C.

For the compound `CC(=O)c1c(C)c(NC(=O)OCC(Cl)(Cl)Cl)c(C)c2c1OCC2c1ccc(C(C)C)cc1` (centres undefined), the melting point lay in the range of 186 to 189 °C.

In turn, `CN(C(=O)c1ccc([N+](=O)[O-])cc1)C1N(C)C(c2ccc(F)cc2)=NC1(C(F)(F)F)C(F)(F)F` (centres undefined) displayed a melting point of 174 to 175 °C.

As to `COC(=O)C(C)Oc1cccc(C=Cc2ccc3ccc(Br)cc3n2)c1` (centres undefined), the melting point lay within 101 to 102 °C.

Turning to `Cc1cc2c(c(C)c1C)C(C)(C)CCC2(C)C`, the melting point fell in the range of 79 to 82 °C.

In turn, `COc1ccc(N2CCN(c3c(C)c4c(c(C(C)=O)c3C)OC(C)(C)C4)CC2)cc1` displayed a melting point of 156 to 159 °C.

Compound `O=C(O)c1cc(OCc2ccc(Cl)cc2)c(C(=O)c2ccccc2)c([N+](=O)[O-])c1` had a melting point of 253 to 254 °C.

`CCCCCCCCCCCCCCCCCCOc1cc(OCCCCC(=O)OC)cc(C(=O)OCc2ccccc2)c1` returned a melting point of 40 to 42 °C.

Regarding `COc1ccc2[nH]cc([C@H]3CC[C@@H](N4CCN(c5cccc6[nH]ccc56)CC4)CC3)c2c1`, the melting point was in the range of 105 to 108 °C.

`COc1cc(OC)cc(C2=NC(CO)Cc3cc(OC)c(OC)cc32)c1` (centres undefined): the melting point lay in the range of 59 to 62 °C.

In turn, `CC(=O)Nc1ccc(CSc2ccc(CC(=O)O)cc2)c(C(=O)O)c1` displayed a melting point of 205 to 207 °C.

For `O=CN1CCc2ccccc2CC1`, the melting point is 65 to 66 °C.

On to `Nc1[nH]ncc1C(=O)c1cccs1`, for which the melting point lay in the range of 114 to 115 °C.

`O=C(CBr)Nc1cc(F)ccc1C(=O)O` registered a melting point of 166 to 168 °C.

As for `CS(=O)(=O)c1ccc(C(CC2CCOCC2)c2ccc(-c3ccccn3)[nH]2)cn1` (centres undefined), the melting point lay within 89 to 90 °C.

Take `Cn1nc(C(F)(F)F)c(C(=O)Nc2ccccc2)c1-c1ccccc1O`: the melting point worked out at 191 °C.

`CC(C)CCS(=O)(=O)NC(=O)/C=C/c1cc(OC2CCOCC2)nn1Cc1ccc(C(F)(F)F)cc1Cl`: the melting point was 150 to 152 °C.

On to `CC1(C)CCC(C)(C)c2cc3c(cc21)C(C)(C)CCC3(C)C`, for which the melting point was 218 to 221 °C.

In the case of `Cc1cc(Cc2cnc(N)nc2N)cc(C)c1N`, the melting point is 258 to 260 °C.

`O=C(NO)c1ccc(C(=O)NOCc2ccc3ccccc3c2)cc1` registered a melting point of 220 to 222 °C.

`COC(=O)c1ccc(OC(=O)c2cccc(C(=O)Oc3ccc(C(=O)OC)cc3)c2)cc1` yielded a melting point of 215 to 217 °C.

Regarding `NC(=O)c1nnn(Cc2ccccc2F)c1N`, the melting point is 189 to 190 °C.

Compound `CCN1C(=O)N(c2cc(OC)cc(OC)c2Cl)Cc2cnc(SC)nc21` returned a melting point of 189 to 191 °C.

`COC(=O)c1ncccc1NC(=O)C(C)CS` (centres undefined) gave a melting point of 55 to 56 °C.

Take `CCCC(=O)Nc1ncc(C(C)C)s1`: the melting point fell in the range of 95 to 97 °C.

Compound `COC(=O)c1ccc(CN2CCC(N)CC2)nc1` yielded a melting point of 173 to 175 °C.

`Cc1ccc(C2c3[nH]c4ccccc4c3CCN2C(=O)C=Cc2cc([N+](=O)[O-])ccc2Cl)cc1` (centres undefined) displayed a melting point of 211 to 213 °C.

In the case of `O=C(O)C1CCc2c(c3cccc(F)c3n2C(=O)c2ccccc2)C1` (centres undefined), the melting point lay in the range of 250 to 251 °C.

Compound `CCCCCCCN(CCN1CCN(CCSc2nc3cccc(C(=O)OC)c3o2)CC1)C(=O)Nc1c(C(C)C)cccc1C(C)C` gave a melting point of 125 to 126 °C.

`O=C1NC(=O)C(c2ccccc2)(c2ccccc2)N2CCN(C(=O)OCc3ccccc3)CC12` (centres undefined) yielded a melting point of 151 to 152 °C.

`CCOC(=O)c1c(C)nc(-c2ccccc2)nc1-c1ccc(OC(C)=O)c([N+](=O)[O-])c1` displayed a melting point of 147 to 148 °C.

`COC(=O)c1ccc(OC)c(C(F)(F)F)c1` registered a melting point of 77 to 79 °C.

Regarding `O=C1CCCC(c2ccc(Cl)cc2)N1c1cccnc1` (centres undefined), the melting point was in the range of 107 to 108 °C.

On to `COCCOc1cc2c(cc1C#Cc1ccccc1)NC(=O)CC(c1cccc(C#N)c1)=N2`, for which the melting point lay within 174 to 176 °C.

Take `CC(C#N)(C#N)Cc1ccc(Cl)cc1`: the melting point stood at 91.1 °C.

For `CSc1ccc2cc(O)ccc2c1`, the melting point was in the range of 120 to 122 °C.

Compound `COc1ccc(CN2C(=O)C(Oc3ccccc3)C2c2ccc(C(=O)O)cc2)cc1OC` (centres undefined) had a melting point of 160 to 161 °C.

The compound `CCSC1=NCC(=O)N1c1ccccc1` came in with a melting point of 79 to 81 °C.

Regarding `CCCCN1C(=O)c2cnc(-c3ccccc3)nc2N(C(=O)CCl)c2ccccc21`, the melting point is 139 to 140 °C.

`O=c1ccn2nc(-c3ccncc3)c(-c3ccc(F)cc3)c2[nH]1` showed a melting point of 298 to 299 °C.

As to `CC(=O)c1ccc(C2=CC3CCCC3C2=O)cc1` (centres undefined), the melting point fell in the range of 76 to 77 °C.

In turn, `CCOC(=O)N1CCC(C(=O)c2ccc(F)cc2)(c2ccccc2)CC1` registered a melting point of 91.7 °C.

Consider `NC(=NCCc1ccccn1)Nc1ccc(Br)cn1`, for which the melting point is 139 to 141 °C.

The compound `FC(F)(F)C1(c2cc(Cl)cc(Cl)c2)CC(c2ccc(Br)cc2)=NO1` (centres undefined) yielded a melting point of 122 to 124 °C.

As for `CC(C)c1cc(C(C)C)c2c(c1)C1(O)C(=O)c3ccccc3C1(O)O2` (centres undefined), the melting point is 205 to 206 °C.

Compound `N#Cc1cc2cccnc2nc1O` yielded a melting point of 300 °C.

`CCN1C[C@@H](O)[C@H](N(CCc2ccccc2)C(=O)c2ccccc2)C1` (relative stereo) returned a melting point of 71 to 75 °C.
